The supplement of paper PMC10307832

Assays:
Experiment in all cases: relative viability (nuclei count vs DMSO), 5 days (fraction); higher = more cells survive
IPA-3 + Phenformin = compound: C1=CC=C2C(=C1)C=CC(=C2SSC3=C(C=CC4=CC=CC=C43)O)O [IPA-3] + N=C(N)NC(=N)NCCc1ccccc1 [Phenformin] (partner 250 µM)
In short: (§1)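 Nuclei were stained with Hoechst during a one-step fixation (final 0.05% Triton X-100, 1% formaldehyde, 1 ug/ml Hoechst) carried out 5 days after dosing, then counted on 4× images. The cells, lung cancer lines in 1536-well plates, had been dosed by pin tool the day after seeding with one drug alone or a fixed anchor-drug dose plus five library-drug doses (not always all listed) in √10 steps. Relative viability is the nuclei count in treated wells divided by that in vehicle wells, and each value is the median of duplicate plates.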

IPA-3 + Linsitinib = compound: C1=CC=C2C(=C1)C=CC(=C2SSC3=C(C=CC4=CC=CC=C43)O)O [IPA-3] + C[C@]1(O)C[C@@H](c2nc(-c3ccc4ccc(-c5ccccc5)nc4c3)c3c(N)nccn32)C1 [Linsitinib] (partner 1 µM)
In short: as §1

IPA-3 + Bortezomib = compound: C1=CC=C2C(=C1)C=CC(=C2SSC3=C(C=CC4=CC=CC=C43)O)O [IPA-3] + CC(C)C[C@H](NC(=O)[C@H](Cc1ccccc1)NC(=O)c1cnccn1)B(O)O [Bortezomib] (partner 0.002 µM)
In short: as §1

RAF265 + Dasatinib = compound: Cn1c(Nc2ccc(C(F)(F)F)cc2)nc2cc(Oc3ccnc(-c4ncc(C(F)(F)F)[nH]4)c3)ccc21 [RAF265] + Cc1nc(Nc2ncc(C(=O)Nc3c(C)cccc3Cl)s2)cc(N2CCN(CCO)CC2)n1 [Dasatinib] (partner 0.075 µM)
In short: as §1

Cell Line | relative viability (IPA-3 + Phenformin; first compound 0.2 µM) | relative viability (IPA-3 + Phenformin; first compound 0.6325 µM) | relative viability (IPA-3 + Phenformin; first compound 2 µM) | relative viability (IPA-3 + Phenformin; first compound 6.325 µM) | relative viability (IPA-3 + Phenformin; first compound 20 µM) | relative viability (IPA-3 + Linsitinib; first compound 0.2 µM) | relative viability (IPA-3 + Linsitinib; first compound 0.6325 µM) | relative viability (IPA-3 + Linsitinib; first compound 2 µM) | relative viability (IPA-3 + Linsitinib; first compound 6.325 µM) | relative viability (IPA-3 + Linsitinib; first compound 20 µM) | relative viability (IPA-3 + Bortezomib; first compound 0.2 µM) | relative viability (IPA-3 + Bortezomib; first compound 0.6325 µM) | relative viability (IPA-3 + Bortezomib; first compound 2 µM) | relative viability (IPA-3 + Bortezomib; first compound 6.325 µM) | relative viability (IPA-3 + Bortezomib; first compound 20 µM) | relative viability (RAF265 + Dasatinib; first compound 0.01 µM) | relative viability (RAF265 + Dasatinib; first compound 0.03162 µM) | relative viability (RAF265 + Dasatinib; first compound 0.1 µM) | relative viability (RAF265 + Dasatinib; first compound 0.3162 µM) | relative viability (RAF265 + Dasatinib; first compound 1 µM)
LC-2-ad | 0.605 | 0.566 | 0.556 | 0.595 | 0.666 | 0.885 | 0.845 | 0.86 | 0.795 | 0.86 | 1 | 0.974 | 1.05 | 0.983 | 0.998 | 0.57 | 0.691 | 0.386 | 0.27 | 0.196
ABC-1 | 0.258 | 0.247 | 0.236 | 0.258 | 0.235 | 0.862 | 0.752 |  | 0.715 | 1.06 | 0.297 | 0.345 |  | 0.295 | 0.257 | 0.594 | 0.562 | 0.601 | 0.498 | 0.378
NCI-H647 | 0.8 | 0.482 | 0.48 | 0.371 | 0.107 | 1.52 | 1.01 | 1.11 | 0.641 | 0.38 | 1.77 | 0.939 | 0.654 | 0.614 | 0.121 | 0.197 | 0.132 | 0.242 | 0.0861 | 0.0896
NCI-H1755 | 0.675 | 0.582 | 0.622 | 0.612 | 0.557 | 1.03 | 0.94 | 0.981 | 0.984 | 1.04 | 1.02 | 0.905 | 0.946 | 0.997 | 1.08 | 0.404 | 0.427 | 0.33 | 0.294 | 0.195
EPLC-272H | 0.306 | 0.27 | 0.346 | 0.405 | 0.397 | 1.16 | 1.13 | 1.22 | 1.14 | 1.41 | 0.87 | 0.95 | 0.816 | 0.861 | 1.13 | 0.34 | 0.303 | 0.238 | 0.234 | 0.139
NCI-H1437 | 0.41 | 0.294 | 0.328 | 0.394 | 0.304 | 1.25 | 0.933 | 0.988 | 0.975 | 1.3 | 1.09 | 0.467 | 0.443 | 0.438 | 0.587 | 0.451 | 0.416 | 0.403 | 0.397 | 0.395
EKVX | 0.267 | 0.235 | 0.238 | 0.235 | 0.266 | 1.1 | 1.06 | 1.05 | 0.97 | 1.43 | 1.31 | 0.995 | 1.12 | 0.988 | 1.54 | 0.598 | 0.606 | 0.756 |  | 0.382
NCI-H1651 | 0.341 | 0.317 | 0.364 | 0.339 | 0.31 | 1.1 |  | 1.07 | 1.04 | 1.05 | 1.02 | 0.912 | 0.998 | 1.04 | 1.06 | 0.417 | 0.408 | 0.368 | 0.398 | 0.263
